# Assay results published in patent US9505710B2 (priority 2015, dated 2016).
# Where a name gives a salt, the structure may show the parent alone.
# Molecular target: BoNT/A LC1-429 (Clostridium botulinum, UniProt P0DPI1)
# Assay: biochemical
# Settings: BoNT/A Ki (nM)
# Chain of BoNT/A LC1-429 (P0DPI1 1-429, added parts left off): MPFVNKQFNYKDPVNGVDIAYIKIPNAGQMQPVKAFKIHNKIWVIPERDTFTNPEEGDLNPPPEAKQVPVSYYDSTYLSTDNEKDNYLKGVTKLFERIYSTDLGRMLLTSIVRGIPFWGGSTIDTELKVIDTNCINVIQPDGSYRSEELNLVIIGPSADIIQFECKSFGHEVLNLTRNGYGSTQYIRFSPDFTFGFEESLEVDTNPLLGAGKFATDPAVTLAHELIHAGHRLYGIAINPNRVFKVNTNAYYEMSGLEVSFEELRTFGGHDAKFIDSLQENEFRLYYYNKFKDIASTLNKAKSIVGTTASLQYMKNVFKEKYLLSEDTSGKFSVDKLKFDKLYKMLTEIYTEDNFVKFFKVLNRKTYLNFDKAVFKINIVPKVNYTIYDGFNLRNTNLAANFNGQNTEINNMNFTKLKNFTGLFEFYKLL
row,Structure (SMILES),Ki [nM]
1,"CO[C@H](CC(=O)NO)[C@H](Cc1ccc(Cl)cc1)c1ccc(C(=O)N2CCOCC2)cc1 [Example 4-6, (3R,4R)-5-(4-chlorophenyl)-N-hydroxy-3-methoxy-4-(4-(morpholine-4-carbonyl)phenyl)pentanamide]",11.4
2,"CO[C@H](CC(=O)NO)[C@H](Cc1ccc(Cl)cc1)c1ccc(C(=O)N2CCCCC2)cc1 [Example 4-7, (3R,4R)-5-(4-chlorophenyl)-N-hydroxy-3-methoxy-4-(4-(piperidine-1-carbonyl)phenyl)pentanamide]",5.5
3,"CCO[C@H](CC(=O)NO)[C@H](Cc1ccc(Cl)cc1)c1ccc(C(=O)N2CCN(C(=O)OC(C)(C)C)CC2)cc1 [Example 4-8, tert-butyl 4-(4-((2R,3R)-1-(4-chlorophenyl)-3-ethoxy-5-(hydroxyamino)-5-oxopentan-2-yl)benzoyl)piperazine-1-carboxylate]",22
4,"CCO[C@H](CC(=O)NO)[C@H](Cc1ccc(Cl)cc1)c1ccc(C(=O)N2CCNCC2)cc1 [Example 4-9, (3R,4R)-5-(4-chlorophenyl)-3-ethoxy-N-hydroxy-4-(4-(piperazine-1-carbonyl)phenyl)pentanamide]",9.2 ± 6.1
5,"CCO[C@H](CC(=O)NO)[C@H](Cc1ccc(Cl)cc1)c1ccc(C(=O)N(CCO)CCO)cc1 [Example 4-10, 4-((2R,3R)-1-(4-chlorophenyl)-3-ethoxy-5-(hydroxyamino)-5-oxopentan-2-yl)-N,N-bis(2-hydroxyethyl)benzamide]",16.7
6,"CO[C@H](CC(=O)NO)[C@H](Cc1ccc(Cl)cc1)c1ccc(Cl)c(Br)c1 [Example 5-1, (3R,4R)-4-(3-bromo-4-chlorophenyl)-5-(4-chlorophenyl)-N-hydroxy-3-methoxypentanamide]",5.2
7,"CO[C@H](CC(=O)NO)[C@H](Cc1ccc(Cl)cc1)c1ccc(Cl)c(CN2CCCCC2)c1 [Example 5-2, (3R,4R)-4-(4-chloro-3-(piperidin-1-ylmethyl)phenyl)-5-(4-chlorophenyl)-N-hydroxy-3-methoxypentanamide]",3.7
8,"CO[C@H](CC(=O)NO)[C@H](Cc1ccc(Cl)cc1)c1ccc(Cl)c(C(=O)N2CCCCC2)c1 [Example 5-3, (3R,4R)-4-(4-chloro-3-(piperidine-1-carbonyl)phenyl)-5-(4-chlorophenyl)-N-hydroxy-3-methoxypentanamide]",13.1
9,"CO[C@H](CC(=O)NO)[C@H](Cc1ccc(Cl)cc1)c1ccc(F)cc1F [Example 5-4, (3R,4R)-5-(4-chlorophenyl)-4-(2,4-difluorophenyl)-N-hydroxy-3-methoxypentanamide]",3.95
10,"CO[C@H](CC(=O)NO)[C@H](Cc1ccc(Cl)cc1)c1cc(F)c(F)c(F)c1 [Example 5-5, (3R,4R)-5-(4-chlorophenyl)-N-hydroxy-3-methoxy-4-(3,4,5-trifluorophenyl)pentanamide]",5.36
11,"CO[C@H](CC(=O)NO)[C@H](Cc1ccc(Cl)cc1)c1cc(F)c(F)c(F)c1F [Example 5-6, (3R,4R)-5-(4-chlorophenyl)-N-hydroxy-3-methoxy-4-(2,3,4,5-tetrafluorophenyl)pentanamide]",4.95
12,"CCO[C@H](CC(=O)NO)[C@H](Cc1ccc(Cl)cc1)c1ccc(Cl)cc1 [Example 6-1, (3R,4R)-4,5-bis(4-chlorophenyl)-3-ethoxy-N-hydroxypentanamide]",4.9
13,"CO[C@H](CC(=O)NO)[C@H](Cc1ccc(Cl)cc1)c1ccc(F)cc1 [Example 6-2, (3R,4R)-5-(4-chlorophenyl)-4-(4-fluorophenyl)-N-hydroxy-3-methoxypentanamide potassium salt]",13
14,"CCO[C@H](CC(=O)NO)[C@H](Cc1ccc(Cl)cc1)c1ccc(F)cc1 [Example 6-3, (3R,4R)-5-(4-chlorophenyl)-3-ethoxy-4-(4-fluorophenyl)-N-hydroxypentanamide potassium salt]",8.9
15,"CO[C@H](CC(=O)NO)[C@H](Cc1ccc(Cl)cc1C)c1ccc(F)cc1 [Example 6-4, (3R,4R)-5-(4-chloro-2-methylphenyl)-4-(4-fluorophenyl)-N-hydroxy-3-methoxypentanamide]",1.48
